The values that follow come from ChEMBL document CHEMBL3507680, “University of Dundee, Gates Library screen for HepG2 cell viability”.

This data set in a line: Human HepG2 cell viability assay in 384 well format. The class given is toxicity, cell-based. Also on record: dose 125 nL, time 70.5 hour; cytotoxicity at 70.5 h: concentration not given beside the values. The conditions noted are these: HepG2 cells, read-out: Inhibition.
For the compound `O=C(CC(F)(F)F)N1C[C@@H]2CC[C@H](C1)N(Cc1ccccc1)C2=O`, the cytotoxicity at 70.5 h is -9.7%.
Then `Cc1cnn(CC2CCN(c3cc(C(C)C)nc4ccnn34)CC2)c1`, with -0.486%; and `CCCc1cc(C(=O)NC(c2ccccc2)c2n[nH]c(C)n2)[nH]n1` (centres undefined), with -7.51%.
Then `COc1cc2c(cc1CNCc1ccnc(-n3cccn3)c1)OC(C)C2` (centres undefined), with -12.6%; and `COc1ccc(-c2noc([C@@H](C)NC(=O)CC(C)C)c2C(=O)O)cc1`, with -8.52%.
With `CCn1cc(NC(=O)NCC(C)(C)N2CCc3ccccc3C2)cn1`, the cytotoxicity at 70.5 h is 13.8%.
To `CC(=O)Nc1ccsc1C(=O)N1CC[C@@H]2CC[C@H](C1)N2C` belongs -6.78%; to `COc1ccc(CN2CCn3cc(CN4CCN(C)CC4)nc3C2)cc1`, -7.16%.
Take `COc1cccc(CN(C(=O)Nc2nncs2)C2CCC(O)CC2)c1` (centres undefined): the cytotoxicity at 70.5 h was determined as 0.476%.
Then `CN(C)CCCNC(=O)c1cnc(Cc2ccc(F)cc2)s1`, with -6.21%; and `COCc1cc(NCCc2ccc(F)cc2)n2nccc2n1`, with -0.706%; and `FC(F)(F)c1ccnc(N2CCC(c3nccn3CC3CC3)CC2)n1`, with -4.46%.
For the compound `CC(C)c1nccn1C1CCCN(C(=O)c2nccnc2N)C1` (centres undefined), the cytotoxicity at 70.5 h was 17.2%.
In the case of `CN1CC[C@H](c2ccccc2)[C@@H]2[C@H]1CCCCN2C(=O)c1cnccn1`, the cytotoxicity at 70.5 h is -8.44%.
Take `CC(=O)N1CCCC(c2nnc3n2CCN(C(=O)C2CCCCC2)C3)C1` (centres undefined): the cytotoxicity at 70.5 h was -8.2%.
To `CC(C)OCCS(=O)(=O)c1ccccc1C#N` belongs 11.2%.
With `O=C(NCN1CCc2ccccc2C1)c1cnccn1`, the cytotoxicity at 70.5 h was -8.88%.
To `CC(C)N(CC(N)=O)Cc1csc(Cc2ccccc2)n1` belongs 24.4%; to `Cc1ccc(C(=O)N2CCSCC2)cc1NC(=O)NCC1CCC1`, -7.96%; to `CCC(=O)NC1CCCN(C(=O)c2ccc(OCC3CC3)nc2)C1` (centres undefined), 15.5%.
To `Cc1nc(C)n(CC2CN(Cc3nc4ccccc4n3C)CCO2)n1` (centres undefined) belongs -13.3%; to `COCC1(C(=O)N[C@H]2CN(c3noc(C)n3)C[C@@H]2C2CC2)CCC1`, -1.28%; to `C[S+]([O-])c1nncn1CCCc1ccc(Cl)cc1` (centres undefined), -2.94%.
Then `Cc1cc(C)c2nc(CN3CCC(CN)CC3)cc(O)c2c1`, with 2.77%; and `COc1ccc(CS(=O)(=O)CC(=O)NCC2CC2)cc1F`, with -3.56%; and `COc1cc(N2C[C@@H]3COC[C@]3(COCc3ccncc3)C2)ncn1`, with 8.15%.
Regarding `CCOC(=O)CNC(=O)c1scnc1C`, the cytotoxicity at 70.5 h is -8.4%.
Regarding `COc1ccc(CCC(=O)N(C)Cc2c(C)nn(C)c2C)cc1`, the cytotoxicity at 70.5 h came to 1.57%.
To `CCc1nc(CN2CCCC(Nc3ncnc4ccsc34)C2)no1` (centres undefined) belongs -8.27%.
Then `CN(C)C(=O)[C@H]1C[C@@H]2CN(c3ncccn3)C[C@H]1O2`, with -4.11%; and `CC(C)c1cc(C(=O)N2CCC3(CCc4ccccc4C(=O)N3)C2)no1` (centres undefined), with 8.79%; and `CCc1nccn1C1CCCN(C(=O)c2ccc(NC3CC3)nc2)C1` (centres undefined), with -2.23%.
In the case of `Cc1ccoc1C(=O)NCCS(=O)(=O)N1CCSCC1`, the cytotoxicity at 70.5 h came to 5.89%.
Consider `Cc1nnc2ccc(OCCNS(C)(=O)=O)nn12`, for which the cytotoxicity at 70.5 h is -0.867%.
To `Cc1noc(CN(Cc2cccs2)C2CCS(=O)(=O)C2)n1` (centres undefined) belongs -3.18%; to `Cc1cnn(CC2CCCN2C(=O)c2cc3ccccc3c(=O)[nH]2)c1` (centres undefined), -12.3%; to `COCCn1c2c(ccc1=O)CC(N)CC2` (centres undefined), -0.36%.
To `CSc1cc2c(cc1NC(=O)NCc1ccco1)OCCO2` belongs -5.54%; to `CN1CCN(C2CCN(c3cnc4ccccc4n3)CC2)C1=O`, -12.4%.
For `CN(CCC(O)c1ccccc1)Cc1ccccc1C#N` (centres undefined), the cytotoxicity at 70.5 h is -5.67%.
Turning to `COC1CCC[C@@H]2CN(Cc3csc(C)n3)C[C@H]12` (some centres undefined), the cytotoxicity at 70.5 h is -4.08%.
For `O=C(C1CCCO1)N1CCCn2c(nnc2Cn2cccn2)C1` (centres undefined), the cytotoxicity at 70.5 h is -10.9%.
`CN(C)c1ccc(CN2CCN(c3ccc(C#N)cc3)C(=O)C2)cn1`: the cytotoxicity at 70.5 h is -7.99%.
Then `Cc1cccc(C(=O)N(C)CC(=O)N2CCCC2)c1C`, with -14.8%; and `CCCN(Cc1ccccn1)Cc1ccccc1OC`, with -6.2%; and `CC(C)c1nnc(CN2CCC3(CC2)Nc2ccccc2NC3=O)o1`, with 18%.
Then `CC(C)NC(=O)[C@H]1CN(Cc2ccccc2)C[C@@H]1C(=O)c1ccccc1`, with -1.04%; and `Cc1cc2c(=O)n3c(nc2s1)CCN(C(=O)c1sc(C)nc1C)CC3`, with -2.56%.
Then `Cc1cc(C)c2c(NCC3(O)CCCCC3)ncnc2n1`, with -2.73%; and `CCn1c(CC2CCN(C(=O)C3CNCCO3)CC2)nn(C)c1=O` (centres undefined), with -16.2%.
In the case of `Fc1ccc(CN2CCCC(c3cc4ncccc4[nH]3)C2)cc1` (centres undefined), the cytotoxicity at 70.5 h is 3.04%.
Then `Cc1cc(CN(C)CCN(C)c2ccccc2)no1`, with 0.0635%; and `Cc1cc(NC(=O)c2nc(N3CCCC3)ncc2Cl)nc(C(C)C)n1`, with 2.57%; and `CCN(CC)C(=O)c1nnc2ccc(N3CCOCC3)cc2n1`, with 26.5%.
To `Cc1cccc(OCC(O)CN2CCC(c3ccn[nH]3)CC2)c1` (centres undefined) belongs -0.803%; to `c1csc(N2CCN(Cc3nnnn3C3CC3)CC2)n1`, 0.58%; to `CC1CCN(C(=O)[C@@H]2C[C@@H]3CCN(Cc4nccs4)C[C@H]3O2)CC1`, -6.62%.
Then `CCC[C@@H]1CN(C(=O)CCc2ccco2)C[C@H]1NS(C)(=O)=O`, with 29%; and `CCOCC1CN(CCN2CCCCC2)Cc2cnn(C)c21` (centres undefined), with 2.16%.
Take `COc1ccc(-c2n[nH]c(C)c2CC(=O)NCC2CCOCC2)cc1`: the cytotoxicity at 70.5 h was -10.5%.
To `Cc1noc(C)c1CC(=O)NCCN1CCN(S(C)(=O)=O)CC1` belongs 0.0227%.
In the case of `NC(=O)C1CCCN1Cc1ccccc1NC(=O)Cc1cccs1` (centres undefined), the cytotoxicity at 70.5 h was determined as 13%.
Then `CC(C)c1nn(C)c(N(C)C)c1CNCCC(=O)NC1CCCCC1`, with 37.6%.
To `CNc1cc(C2CCCN2C(=O)CCc2ccccc2F)ccn1` (centres undefined) belongs -2.87%; to `COCCNC(=O)c1cnc(C)nc1C`, 34.7%; to `CCOCC(=O)N1CCCn2c(CN3CCCCC3)nnc2C1`, -1.12%.
Then `CCc1nnc2ccc(NCC3(O)CCOCC3)nn12`, with -7.18%; and `CCCNC(=O)c1cc2c(c3ccccc3n2C)n1C(=O)N(C)C`, with -5.66%; and `COC(=O)CCN(CC1CCCO1)C(=O)Cc1ccc(OC)c(OC)c1` (centres undefined), with -5.89%.
In the case of `Cc1cc(C)c(CNC(=O)N2CCC(N3CCNC3=O)CC2)c(C)c1`, the cytotoxicity at 70.5 h is -7.95%.
Then `CC(C)Cc1cc(NC(=O)c2n[nH]c3ccccc23)n(C)n1`, with -5.98%; and `CCC(Sc1ncc(CO)n1C)c1ccccc1` (centres undefined), with -10%; and `CC(C(=O)NCCc1cccs1)N1CCC(n2ccnc2)CC1` (centres undefined), with -1.16%.
For `COc1cccc2ccn(CC(=O)NCCC(C)C)c12`, the cytotoxicity at 70.5 h was found to be 11%.
As to `Cc1cc(N2CCSCC2)ccc1NC(=O)N(CCO)C1CC1`, the cytotoxicity at 70.5 h is -5.59%.
Consider `Fc1ccccc1CN1CCC(c2noc(-c3ccccn3)n2)CC1`, for which the cytotoxicity at 70.5 h came out at 1.88%.
Regarding `CCc1cnc(C)nc1N1CCS(=O)(=O)CC1`, the cytotoxicity at 70.5 h is -7.02%.
On to `CCCS(=O)(=O)NC(C)C(=O)NCc1ccnc(N2CCCC2)c1` (centres undefined), for which the cytotoxicity at 70.5 h is -3.25%.
`CS(=O)(=O)N1CCN(CC(O)COc2ccc(Cl)cc2)CC1` (centres undefined): the cytotoxicity at 70.5 h amounted to 0.0303%.
As to `Cc1csc(N2CCC(NCC3(O)CCc4ccccc43)CC2)n1` (centres undefined), the cytotoxicity at 70.5 h is -7.31%.
To `Cc1nc(-n2nc(-c3cccs3)cc2N)[nH]c(=O)c1C` belongs -4.91%; to `O=C(CCc1ccncc1)N1CCCC(N2CCNC2=O)C1` (centres undefined), -19.2%.
As for `CN1C(=O)C2(CCN(C(=O)c3ccccc3)CC2)c2cc(F)ccc21`, the cytotoxicity at 70.5 h was -7.93%.
Consider `Cc1cccc(NC(=O)CNC(=O)Cn2ncc(Cl)c(Cl)c2=O)c1C`, for which the cytotoxicity at 70.5 h is 4.71%.
To `O=C(C1CCC1)N1CCCC(c2ccnc(Nc3cnccn3)n2)C1` (centres undefined) belongs -7.38%.
Then `O=C(c1sccc1C1CC1)N1CCN(c2ncccn2)CC1`, with -0.605%; and `CCn1nc(C)c2c1cnn2CCNS(=O)(=O)c1ccccc1`, with -6.47%.
As for `CCc1ccc(C(=O)N2CCCC(n3nc(C)nc3C)C2)o1` (centres undefined), the cytotoxicity at 70.5 h stood at 13.2%.
Then `CN(C(=O)Nc1ccncc1)C1CCN(c2ccc(Cl)cc2)CC1`, with 1.01%.
As to `Cn1cc(-c2nc(CN3CCOC(Cn4cccn4)C3)cs2)cn1` (centres undefined), the cytotoxicity at 70.5 h is -5.18%.
For the compound `Cc1cc(=O)n(CC(=O)NCC2CCCO2)c(-c2ccc(F)cc2)n1` (centres undefined), the cytotoxicity at 70.5 h is 13%.
For the compound `c1nc(N2CCOCC2)nc2c1COCC21CCN(CC2CC2)C1` (centres undefined), the cytotoxicity at 70.5 h was -6.25%.
Consider `CCN(C)c1ncnc2c1CCN(Cc1ccsc1)CC2`, for which the cytotoxicity at 70.5 h amounted to 0.529%.
Turning to `Cc1nc(C2CCNCC2)cc(N(C)CCc2cn[nH]c2)n1`, the cytotoxicity at 70.5 h was -3.08%.
Then `COCc1nc(C(=O)N2CCCC(n3ccnc3)C2)cs1` (centres undefined), with -10%; and `CC(C)(C)n1cc(C(=O)N2CCN(Cc3ccncc3)CC2)cn1`, with -2.1%; and `c1ccc(O[C@@H]2CC[C@H]3[C@H]2OCCN3Cc2ccsc2)nc1`, with 8.42%.
Then `COCC(=O)NCc1cc(=O)n2c(n1)CN(CC1CCOC1)CCC2` (centres undefined), with 15.2%; and `Cc1nnc(C(C)N(C)Cc2c(C)nn(-c3ccccc3C)c2C)o1` (centres undefined), with 2.96%.
